In PubChem BioAssay (NCI):
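Assay format: 96-well plates, 48-hour exposure. The concentration for 50% growth inhibition is given as GI50. The concentration for full growth arrest is given as TGI.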

What follows are compounds tested on HCC-2998 colon (assay: NCI-60 cell line screen, 48 h).

SMILES	TGI	GI50
CC1=CCC([C@@](C)(O)CCCC(C)(C)N=C=S)CC1 (stereo partly drawn)	32.4 µM	
C=C1C(=O)CC2C1CC(=O)/C(C)=C/CCC(C)(O)C2O (stereo not drawn)	17.1 µM	
O=C1C=C/C(=N\N=C(c2ccccc2)c2ccccc2)O1	> 10 µM	
N[C@@H](Cc1ccccc1)C(=O)N1CCC[C@@H]1P(=O)(Oc1ccccc1)Oc1ccccc1	> 100 µM	
O=c1[nH][nH]c(=O)n1CCCCCCn1c(=O)[nH][nH]c1=O	> 100 µM	
C[C@H](CCC(=O)O)[C@H]1CC[C@H]2[C@@H]3C(=O)C[C@@H]4C[C@H](O)CC[C@]4(C)[C@H]3C[C@H](O)[C@]12C	> 100 µM	
CC(=O)NC1C(OCc2ccccc2)OC(CO)C(O)C1OCC(=O)N[C@@H](C)C(=O)N[C@H](CCC(=O)NCCCNc1c2ccccc2nc2cccc([N+](=O)[O-])c12)C(N)=O (stereo partly drawn)	0.0301 µM	
COc1ccc(-c2nc(SCC(=O)NNC(=S)Nc3ccccc3)[nH]c2-c2ccc(OC)cc2)cc1	29.3 µM	
O=C(O)c1ccccc1CC(Cc1ccc2c(c1)CCC2)C(=O)O (stereo not drawn)	> 100 µM	
Cn1c(SCc2ccc(F)cc2)nnc1C12CC3CC(CC(C3)C1)C2	> 100 µM	
COC(=O)/C=C\C(C#N)(C#N)N=Cc1ccc(C)cc1	35.3 µM	
CC(c1ccccc1)N1CCN(C(C)c2ccccc2)CC1 (stereo not drawn)	44.6 µM	
CCCCCC#CCOC(=O)C(=[N+]=[N-])P(=O)(c1ccccc1)c1ccccc1	> 10 µM	
COc1ccc(C(=O)/C=C/c2ccc(OCCCOc3ccc(/C=C/C(=O)c4ccc(OC)cc4)cc3)cc2)cc1	> 100 µM	
CCOc1cc(/C=C2/C(C)=NN(c3cccc(Cl)c3)/C2=N/c2nc3ccccc3s2)ccc1O	35.6 µM	
COc1ccc(N2C(=O)CC(=O)N(NC(=O)C(C)Oc3ccccc3C)C2=S)cc1 (stereo not drawn)	> 100 µM	
COc1cc(OC)cc(C(=O)CC(=O)c2cc(OC)cc(OC)c2)c1	> 100 µM	
COc1ccc(C2c3cn[nH]c3CC3CCCCC32)cc1 (stereo not drawn)	35 µM	
O=C1OC(C2Cc3ccc4ccccc4c3C2=O)c2ccccc21 (stereo not drawn)	> 100 µM	

SMILES	TGI	GI50
C/C(=N\N=C1/C(=O)OC(c2ccccc2)=C1C(=O)c1ccccc1)c1ccc([N+](=O)[O-])cc1	> 100 µM	
O=S(=O)(O)C(CO)c1ccccc1 (stereo not drawn) (tested in a mixture with another compound)	> 100 µM	
O=C1c2ccccc2C(=O)N1n1c(Cc2ccc([N+](=O)[O-])cc2)n[nH]c1=O	> 100 µM	
O=C1CC2(CCC(O)(c3ccc4ccccc4c3)C(C(=O)c3ccc4ccccc4c3)C2)C(=O)c2ccccc2N1 (stereo not drawn)	> 100 µM	
Cc1nc(C)c(N2CCN([N+](=O)[O-])CC2)c(=O)[nH]1	> 100 µM	
COc1ccc(C2OC(c3ccncc3)=NN2C)cc1F (stereo not drawn)	> 100 µM	
Cc1cc(/N=C/c2ccc(N(C)C)cc2)n(-c2ccccc2)n1	61.7 µM	
O=C1NC2c3c(I)sc(I)c3C(O)C2O1 (stereo not drawn)	> 100 µM	
S=C1NC2=C(CSC/C2=C\c2cccc(Br)c2)C(c2cccc(Br)c2)N1 (stereo not drawn)	> 100 µM	
Cc1ccc(C2=CC(=O)OC(C[P+](c3ccccc3)(c3ccccc3)c3ccccc3)(c3ccccc3)O2)cc1 (stereo not drawn)	38.2 µM	
O=c1oc2cc(O)ccc2c(O)c1C(c1ccccc1)c1c(O)c2ccc(O)cc2oc1=O	> 100 µM	
C[n+]1c(/C=C/c2c(O)ccc3ccccc23)ccc2ccccc21	13.4 µM	6.63 µM
Cc1c(/C=N\NC(=S)NCCNC(=S)N/N=C\c2c(C)n(C)n(-c3ccccc3)c2=O)c(=O)n(-c2ccccc2)n1C	> 100 µM	
CC(C)c1cc2c(c(O)c1O)[C@@]1(C(=O)O)CCCC(C)(C)[C@@H]1CC2	28.8 µM	
C=CCn1c(=O)c(C(=O)Nc2nc(C34CC5CC(CC(C5)C3)C4)cs2)c(O)c2ccccc21	> 100 µM	
CCCNc1ncnc2c1ncn2C	> 100 µM	
CCOC(=O)c1c(-c2ccc(O)c(OC)c2)c(C#N)c(=S)n(C2OC(CO)C(O)C(O)C2O)c1-c1ccccc1 (stereo not drawn)	> 100 µM	
COC(C)(C)C1(O)CC[C@@H](C)CC1=O (stereo partly drawn)	> 100 µM	
Nc1ccc(N=Nc2c(S(=O)(=O)O)cc3ccccc3c2S(=O)(=O)O)cc1	> 100 µM	

The compounds below were run on LOX IMVI melanoma (assay: NCI-60 cell line screen, 48 h).

SMILES	TGI	GI50
CC1=CCC([C@@](C)(O)CCCC(C)(C)N=C=S)CC1 (stereo partly drawn)	29.6 µM	
CCN1CN(c2ccccc2)C2(CCN(CC3COc4ccccc4O3)CC2)C1=O (stereo not drawn)	45.2 µM	
C=C1C(=O)CC2C1CC(=O)/C(C)=C/CCC(C)(O)C2O (stereo not drawn)	11.9 µM	
O=C1C=C/C(=N\N=C(c2ccccc2)c2ccccc2)O1	> 10 µM	
N[C@@H](Cc1ccccc1)C(=O)N1CCC[C@@H]1P(=O)(Oc1ccccc1)Oc1ccccc1	> 100 µM	
O=c1[nH][nH]c(=O)n1CCCCCCn1c(=O)[nH][nH]c1=O	> 100 µM	
C[C@H](CCC(=O)O)[C@H]1CC[C@H]2[C@@H]3C(=O)C[C@@H]4C[C@H](O)CC[C@]4(C)[C@H]3C[C@H](O)[C@]12C	> 100 µM	
CC(=O)NC1C(OCc2ccccc2)OC(CO)C(O)C1OCC(=O)N[C@@H](C)C(=O)N[C@H](CCC(=O)NCCCNc1c2ccccc2nc2cccc([N+](=O)[O-])c12)C(N)=O (stereo partly drawn)	0.259 µM	
COc1ccc(-c2nc(SCC(=O)NNC(=S)Nc3ccccc3)[nH]c2-c2ccc(OC)cc2)cc1	37.9 µM	
O=C(O)c1ccccc1CC(Cc1ccc2c(c1)CCC2)C(=O)O (stereo not drawn)	> 100 µM	
Cn1c(SCc2ccc(F)cc2)nnc1C12CC3CC(CC(C3)C1)C2	45.6 µM	
COC(=O)/C=C\C(C#N)(C#N)N=Cc1ccc(C)cc1	5.8 µM	
CC(c1ccccc1)N1CCN(C(C)c2ccccc2)CC1 (stereo not drawn)	> 100 µM	
CCCCCC#CCOC(=O)C(=[N+]=[N-])P(=O)(c1ccccc1)c1ccccc1	> 10 µM	
CCOc1cc(/C=C2/C(C)=NN(c3cccc(Cl)c3)/C2=N/c2nc3ccccc3s2)ccc1O	> 100 µM	
COc1ccc(N2C(=O)CC(=O)N(NC(=O)C(C)Oc3ccccc3C)C2=S)cc1 (stereo not drawn)	> 100 µM	
COc1ccc(C2c3cn[nH]c3CC3CCCCC32)cc1 (stereo not drawn)	31.8 µM	
O=C1OC(C2Cc3ccc4ccccc4c3C2=O)c2ccccc21 (stereo not drawn)	> 100 µM	
C/C(=N\N=C1/C(=O)OC(c2ccccc2)=C1C(=O)c1ccccc1)c1ccc([N+](=O)[O-])cc1	> 100 µM	
O=C(O)[C@H]1CCCN1CP(=O)(O)CN1CCC[C@@H]1C(=O)O	> 100 µM	
O=S(=O)(O)C(CO)c1ccccc1 (stereo not drawn) (tested in a mixture with another compound)	> 100 µM	
O=C1CC2(CCC(O)(c3ccc4ccccc4c3)C(C(=O)c3ccc4ccccc4c3)C2)C(=O)c2ccccc2N1 (stereo not drawn)	> 100 µM	

SMILES	TGI	GI50
Cc1nc(C)c(N2CCN([N+](=O)[O-])CC2)c(=O)[nH]1	> 100 µM	
Cc1nn(-c2ccccc2)c2c1C(c1cc3ccccc3nc1Cl)NC(=O)N2 (stereo not drawn)	44.8 µM	
COc1ccc(C2OC(c3ccncc3)=NN2C)cc1F (stereo not drawn)	> 100 µM	
Cc1cc(/N=C/c2ccc(N(C)C)cc2)n(-c2ccccc2)n1	> 100 µM	
COC(=O)C(Cc1ccc2c(c1)CCC2)Cc1ccc2c(c1)CCC2	60.4 µM	
O=C1NC2c3c(I)sc(I)c3C(O)C2O1 (stereo not drawn)	> 100 µM	
CNc1cc2c(c3ccccc13)C(CCl)CN2C(=O)c1cc2cc(OC)c(OC)c(OC)c2[nH]1 (stereo not drawn)	0.00811 µM	
O=C(O)CN1CCN2CCCCCN(CC1)CCN(CC(=O)O)CC2	> 100 µM	
Cc1cccc(C)c1NC(=O)C(Cc1c[nH]c2ccccc12)NC(=O)OCc1ccccc1 (stereo not drawn)	53.8 µM	
S=C1NC2=C(CSC/C2=C\c2cccc(Br)c2)C(c2cccc(Br)c2)N1 (stereo not drawn)	> 100 µM	
CSC1=N/C(=C\c2ccc(C)cc2)C(=O)N1CN1CCCCC1	> 100 µM	
O=c1oc2cc(O)ccc2c(O)c1C(c1ccccc1)c1c(O)c2ccc(O)cc2oc1=O	> 100 µM	
C[n+]1c(/C=C/c2c(O)ccc3ccccc23)ccc2ccccc21	12.7 µM	5.65 µM
O=C(NCP(=O)(Oc1ccccc1)Oc1ccccc1)OCc1ccccc1	> 100 µM	
CC(C)c1cc2c(c(O)c1O)[C@@]1(C(=O)O)CCCC(C)(C)[C@@H]1CC2	53 µM	
C=CCn1c(=O)c(C(=O)Nc2nc(C34CC5CC(CC(C5)C3)C4)cs2)c(O)c2ccccc21	> 100 µM	
CCCNc1ncnc2c1ncn2C	> 100 µM	
C=CCc1cc(-c2nc(=S)[nH][nH]2)ccc1N=NNc1ccc(C(=O)O)cc1	> 100 µM	
O=C(O)CN1CCNCCN(CC(=O)O)CCN(CC(=O)O)CCNCC1	> 100 µM	
CCOC(=O)c1c(-c2ccc(O)c(OC)c2)c(C#N)c(=S)n(C2OC(CO)C(O)C(O)C2O)c1-c1ccccc1 (stereo not drawn)	> 100 µM	
Nc1ccc(N=Nc2c(S(=O)(=O)O)cc3ccccc3c2S(=O)(=O)O)cc1	> 100 µM	

What follows are compounds tested on M14 melanoma (assay: NCI-60 cell line screen, 48 h).

SMILES	TGI
CC1=CCC([C@@](C)(O)CCCC(C)(C)N=C=S)CC1 (stereo partly drawn)	30.8 µM
CCN1CN(c2ccccc2)C2(CCN(CC3COc4ccccc4O3)CC2)C1=O (stereo not drawn)	4.99 µM
C=C1C(=O)CC2C1CC(=O)/C(C)=C/CCC(C)(O)C2O (stereo not drawn)	> 31.2 µM
O=C1C=C/C(=N\N=C(c2ccccc2)c2ccccc2)O1	> 10 µM
N[C@@H](Cc1ccccc1)C(=O)N1CCC[C@@H]1P(=O)(Oc1ccccc1)Oc1ccccc1	> 100 µM
O=c1[nH][nH]c(=O)n1CCCCCCn1c(=O)[nH][nH]c1=O	> 100 µM
C[C@H](CCC(=O)O)[C@H]1CC[C@H]2[C@@H]3C(=O)C[C@@H]4C[C@H](O)CC[C@]4(C)[C@H]3C[C@H](O)[C@]12C	> 100 µM
CC(=O)NC1C(OCc2ccccc2)OC(CO)C(O)C1OCC(=O)N[C@@H](C)C(=O)N[C@H](CCC(=O)NCCCNc1c2ccccc2nc2cccc([N+](=O)[O-])c12)C(N)=O (stereo partly drawn)	0.209 µM
COc1ccc(-c2nc(SCC(=O)NNC(=S)Nc3ccccc3)[nH]c2-c2ccc(OC)cc2)cc1	34.6 µM
O=C(O)c1ccccc1CC(Cc1ccc2c(c1)CCC2)C(=O)O (stereo not drawn)	> 100 µM
